In the kinase profiling compilation of Christmann-Franck et al. (2016):

What was measured:
Experiment in all cases: radiometric filter-binding kinase assay, Kinase HotSpot
Conditions in all cases: compound 0.5 µM; ATP 10 µM
ACVR1 (human) = ACVR1 (human) (UniProt Q04771)
BLK (human) = BLK (human) (UniProt P51451)
CAMK1D (human) = CAMK1D (human) (UniProt Q8IU85)
CDK1 CCNB1 (human) = CDK1 CCNB1 (human) (UniProt P06493+P14635)
CDK6 CCND3 (human) = CDK6 CCND3 (human) (UniProt P30281+Q00534)
CHUK (human) = CHUK (human) (UniProt O15111)
ERBB4 (human) = ERBB4 (human) (UniProt Q15303)
FGFR4 (human) = FGFR4 (human) (UniProt P22455)
FLT3 (human) = FLT3 (human) (UniProt P36888)
GRK4 (human) = GRK4 (human) (UniProt P32298)
HIPK1 (human) = HIPK1 (human) (UniProt Q86Z02)
HIPK4 (human) = HIPK4 (human) (UniProt Q8NE63)
IGF1R (human) = IGF1R (human) (UniProt P08069)
JAK3 JH1 JH2 (human) = JAK3 JH1 JH2 (human) (UniProt P52333)
KIT (human) = KIT (human) (UniProt P10721)
MAP2K2 (human) = MAP2K2 (human) (UniProt P36507)
MAP3K10 (human) = MAP3K10 (human) (UniProt Q02779)
MAP3K7 TAB1 (human) = MAP3K7 TAB1 (human) (UniProt O43318+Q15750)
MAPK14 (human) = MAPK14 (human) (UniProt Q16539)
MAPKAPK3 (human) = MAPKAPK3 (human) (UniProt Q16644)
MST1R (human) = MST1R (human) (UniProt Q04912)
MUSK (human) = MUSK (human) (UniProt O15146)
MYLK (human) = MYLK (human) (UniProt Q15746)
MYLK2 (human) = MYLK2 (human) (UniProt Q9H1R3)
NEK1 (human) = NEK1 (human) (UniProt Q96PY6)
NTRK1 (human) = NTRK1 (human) (UniProt P04629)
PAK2 (human) = PAK2 (human) (UniProt Q13177)
PAK3 (human) = PAK3 (human) (UniProt O75914)
PDGFRB (human) = PDGFRB (human) (UniProt P09619)
PLK3 (human) = PLK3 (human) (UniProt Q9H4B4)
PRKCG (human) = PRKCG (human) (UniProt P05129)
RET (human) = RET (human) (UniProt P07949)
RPS6KA2 KD1 KD2 (human) = RPS6KA2 KD1 KD2 (human) (UniProt Q15349)
RPS6KA6 KD1 KD2 (human) = RPS6KA6 KD1 KD2 (human) (UniProt Q9UK32)
TAOK3 (human) = TAOK3 (human) (UniProt Q9H2K8)
TEK (human) = TEK (human) (UniProt Q02763)
TNK2 (human) = TNK2 (human) (UniProt Q07912)
TSSK1B (human) = TSSK1B (human) (UniProt Q9BXA7)
TSSK2 (human) = TSSK2 (human) (UniProt Q96PF2)
[1] = target: TYK2 JH1 catalytic (human) (UniProt P29597)
VRK1 (human) = VRK1 (human) (UniProt Q99986)
Sequence of VRK1 (human) (Q99986 whole entry, looked up): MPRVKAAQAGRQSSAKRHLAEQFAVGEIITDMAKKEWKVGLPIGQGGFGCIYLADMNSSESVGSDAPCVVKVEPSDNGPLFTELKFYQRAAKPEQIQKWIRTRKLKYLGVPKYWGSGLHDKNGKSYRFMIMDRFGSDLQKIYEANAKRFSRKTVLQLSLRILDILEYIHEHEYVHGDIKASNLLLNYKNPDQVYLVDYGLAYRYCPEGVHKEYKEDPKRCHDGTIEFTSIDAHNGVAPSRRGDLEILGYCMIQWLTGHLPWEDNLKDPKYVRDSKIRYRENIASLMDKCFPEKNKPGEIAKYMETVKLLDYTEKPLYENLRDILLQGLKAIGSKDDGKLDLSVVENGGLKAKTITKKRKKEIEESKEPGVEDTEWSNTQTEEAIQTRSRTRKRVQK

Sequence of RPS6KA2 KD1 KD2 (human) (Q15349 whole entry, looked up): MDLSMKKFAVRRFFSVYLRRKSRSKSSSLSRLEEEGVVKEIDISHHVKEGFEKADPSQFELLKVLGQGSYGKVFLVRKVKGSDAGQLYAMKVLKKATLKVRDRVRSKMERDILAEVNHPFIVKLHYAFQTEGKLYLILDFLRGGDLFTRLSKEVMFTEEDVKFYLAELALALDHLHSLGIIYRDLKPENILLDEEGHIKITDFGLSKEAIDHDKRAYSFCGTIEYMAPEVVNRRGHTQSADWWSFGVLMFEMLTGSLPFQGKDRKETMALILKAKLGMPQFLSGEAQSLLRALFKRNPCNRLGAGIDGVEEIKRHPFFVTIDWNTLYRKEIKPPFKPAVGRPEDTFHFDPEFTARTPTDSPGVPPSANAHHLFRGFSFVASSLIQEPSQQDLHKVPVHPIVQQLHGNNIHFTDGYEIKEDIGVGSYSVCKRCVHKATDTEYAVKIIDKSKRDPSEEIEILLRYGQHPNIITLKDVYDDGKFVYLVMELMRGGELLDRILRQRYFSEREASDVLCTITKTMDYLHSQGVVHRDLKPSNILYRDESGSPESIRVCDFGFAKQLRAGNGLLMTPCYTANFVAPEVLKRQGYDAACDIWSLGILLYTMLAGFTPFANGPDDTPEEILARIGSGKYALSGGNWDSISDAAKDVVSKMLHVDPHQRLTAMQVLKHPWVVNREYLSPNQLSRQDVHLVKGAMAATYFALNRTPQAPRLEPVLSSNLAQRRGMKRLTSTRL
Sequence of CDK1 CCNB1 (human) (P06493 whole entry, looked up): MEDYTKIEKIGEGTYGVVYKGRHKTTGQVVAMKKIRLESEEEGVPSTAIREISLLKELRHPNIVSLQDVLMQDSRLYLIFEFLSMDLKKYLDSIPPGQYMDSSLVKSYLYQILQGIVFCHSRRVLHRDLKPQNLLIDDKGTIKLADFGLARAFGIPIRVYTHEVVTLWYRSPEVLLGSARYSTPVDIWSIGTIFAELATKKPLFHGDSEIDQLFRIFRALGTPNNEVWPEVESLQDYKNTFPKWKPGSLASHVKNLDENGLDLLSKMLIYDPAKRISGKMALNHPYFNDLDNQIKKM
Sequence of CDK1 CCNB1 (human) (P14635 whole entry, looked up): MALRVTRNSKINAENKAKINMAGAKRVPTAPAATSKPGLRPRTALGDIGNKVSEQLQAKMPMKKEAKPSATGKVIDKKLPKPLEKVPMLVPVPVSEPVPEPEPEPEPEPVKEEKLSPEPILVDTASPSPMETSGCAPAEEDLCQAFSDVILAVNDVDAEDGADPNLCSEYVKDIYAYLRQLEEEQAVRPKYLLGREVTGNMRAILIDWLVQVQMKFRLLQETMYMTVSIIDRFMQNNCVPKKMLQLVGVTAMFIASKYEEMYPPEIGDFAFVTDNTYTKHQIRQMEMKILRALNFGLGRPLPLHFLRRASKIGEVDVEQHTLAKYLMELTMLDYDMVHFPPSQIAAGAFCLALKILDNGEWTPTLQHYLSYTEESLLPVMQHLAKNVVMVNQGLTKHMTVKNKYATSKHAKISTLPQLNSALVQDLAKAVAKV
Sequence of RET (human) (P07949 whole entry, looked up): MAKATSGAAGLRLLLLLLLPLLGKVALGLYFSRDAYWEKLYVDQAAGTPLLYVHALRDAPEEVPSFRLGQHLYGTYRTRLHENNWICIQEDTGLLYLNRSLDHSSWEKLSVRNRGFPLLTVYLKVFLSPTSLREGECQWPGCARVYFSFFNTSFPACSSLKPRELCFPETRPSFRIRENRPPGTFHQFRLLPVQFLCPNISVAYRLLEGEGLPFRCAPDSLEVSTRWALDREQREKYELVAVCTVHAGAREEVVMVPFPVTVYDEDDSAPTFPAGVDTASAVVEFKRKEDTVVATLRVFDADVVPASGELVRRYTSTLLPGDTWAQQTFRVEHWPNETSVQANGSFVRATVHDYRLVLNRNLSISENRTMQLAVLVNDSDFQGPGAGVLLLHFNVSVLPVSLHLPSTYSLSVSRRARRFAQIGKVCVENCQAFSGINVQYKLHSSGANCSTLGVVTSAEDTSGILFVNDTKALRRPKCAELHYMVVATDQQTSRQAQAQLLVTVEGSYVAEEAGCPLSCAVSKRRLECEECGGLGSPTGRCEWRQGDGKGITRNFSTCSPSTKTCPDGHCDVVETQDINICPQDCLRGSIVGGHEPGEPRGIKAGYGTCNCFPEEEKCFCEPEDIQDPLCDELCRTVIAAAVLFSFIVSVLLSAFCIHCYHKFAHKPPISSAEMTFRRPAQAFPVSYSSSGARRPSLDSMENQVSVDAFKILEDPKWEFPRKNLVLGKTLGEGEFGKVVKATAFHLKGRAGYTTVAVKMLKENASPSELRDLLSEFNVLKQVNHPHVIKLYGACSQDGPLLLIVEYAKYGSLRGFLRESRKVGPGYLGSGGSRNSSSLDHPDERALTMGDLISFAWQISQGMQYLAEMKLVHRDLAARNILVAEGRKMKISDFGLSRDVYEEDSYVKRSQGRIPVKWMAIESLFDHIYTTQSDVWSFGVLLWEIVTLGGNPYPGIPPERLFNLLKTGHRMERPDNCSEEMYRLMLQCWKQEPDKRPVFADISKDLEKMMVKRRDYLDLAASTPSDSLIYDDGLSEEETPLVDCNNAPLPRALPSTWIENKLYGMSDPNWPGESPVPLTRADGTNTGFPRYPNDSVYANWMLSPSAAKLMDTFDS
Sequence of PAK2 (human) (Q13177 whole entry, looked up): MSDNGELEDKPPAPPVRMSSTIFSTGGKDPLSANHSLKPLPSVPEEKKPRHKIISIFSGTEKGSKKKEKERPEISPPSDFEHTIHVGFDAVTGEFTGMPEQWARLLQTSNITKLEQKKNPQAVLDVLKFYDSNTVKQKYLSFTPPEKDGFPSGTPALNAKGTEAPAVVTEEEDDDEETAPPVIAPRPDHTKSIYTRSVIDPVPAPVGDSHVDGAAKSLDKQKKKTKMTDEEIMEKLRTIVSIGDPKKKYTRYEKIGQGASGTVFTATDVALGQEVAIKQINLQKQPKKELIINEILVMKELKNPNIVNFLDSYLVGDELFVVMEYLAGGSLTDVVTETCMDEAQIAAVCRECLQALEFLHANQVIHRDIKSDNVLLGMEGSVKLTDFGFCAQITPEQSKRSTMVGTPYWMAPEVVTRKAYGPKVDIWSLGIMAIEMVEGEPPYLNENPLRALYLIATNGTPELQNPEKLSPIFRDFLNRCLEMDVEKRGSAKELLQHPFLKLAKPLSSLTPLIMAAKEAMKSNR
Sequence of CHUK (human) (O15111 whole entry, looked up): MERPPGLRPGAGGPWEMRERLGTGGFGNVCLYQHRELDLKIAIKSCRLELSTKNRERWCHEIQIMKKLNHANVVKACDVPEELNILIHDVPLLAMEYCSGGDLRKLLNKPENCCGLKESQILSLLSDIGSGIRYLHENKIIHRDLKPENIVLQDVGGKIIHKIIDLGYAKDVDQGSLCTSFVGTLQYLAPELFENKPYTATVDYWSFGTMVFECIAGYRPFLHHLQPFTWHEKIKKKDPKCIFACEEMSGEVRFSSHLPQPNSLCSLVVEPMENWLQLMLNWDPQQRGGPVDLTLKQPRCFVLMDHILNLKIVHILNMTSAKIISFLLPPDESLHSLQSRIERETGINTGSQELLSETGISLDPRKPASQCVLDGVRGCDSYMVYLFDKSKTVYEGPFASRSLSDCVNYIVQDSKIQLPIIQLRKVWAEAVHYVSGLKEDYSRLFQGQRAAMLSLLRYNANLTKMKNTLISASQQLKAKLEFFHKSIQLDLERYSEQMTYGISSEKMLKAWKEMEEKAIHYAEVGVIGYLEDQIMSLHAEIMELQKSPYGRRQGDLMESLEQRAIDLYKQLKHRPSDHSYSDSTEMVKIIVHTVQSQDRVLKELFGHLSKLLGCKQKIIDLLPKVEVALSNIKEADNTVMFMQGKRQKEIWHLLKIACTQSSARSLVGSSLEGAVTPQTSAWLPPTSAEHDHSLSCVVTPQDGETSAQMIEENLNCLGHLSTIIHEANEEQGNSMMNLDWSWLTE

NC(=O)c1cccc(-c2cc(Nc3ccc(OC(F)(F)F)cc3)ncn2)c1
residual activity (ACVR1 (human)): 99.4% | residual activity (BLK (human)): 103% | residual activity (CAMK1D (human)): 105% | residual activity (CDK1 CCNB1 (human)): 92.5% | residual activity (CDK6 CCND3 (human)): 96.2% | residual activity (CHUK (human)): 95% | residual activity (ERBB4 (human)): 85.3% | residual activity (FGFR4 (human)): 92.9% | residual activity (FLT3 (human)): 98.9% | residual activity (GRK4 (human)): 94.8% | residual activity (HIPK1 (human)): 102% | residual activity (HIPK4 (human)): 101% | residual activity (IGF1R (human)): 91% | residual activity (JAK3 JH1 JH2 (human)): 101% | residual activity (KIT (human)): 100% | residual activity (MAP2K2 (human)): 92.5% | residual activity (MAP3K10 (human)): 95.4% | residual activity (MAP3K7 TAB1 (human)): 99.1% | residual activity (MAPK14 (human)): 92% | residual activity (MAPKAPK3 (human)): 98% | residual activity (MST1R (human)): 111% | residual activity (MUSK (human)): 95.9% | residual activity (MYLK (human)): 91.9% | residual activity (MYLK2 (human)): 97.1% | residual activity (NEK1 (human)): 89.6% | residual activity (NTRK1 (human)): 96.6% | residual activity (PAK2 (human)): 106% | residual activity (PAK3 (human)): 100% | residual activity (PDGFRB (human)): 94.8% | residual activity (PLK3 (human)): 96.9% | residual activity (PRKCG (human)): 83.6% | residual activity (RET (human)): 105% | residual activity (RPS6KA2 KD1 KD2 (human)): 96.2% | residual activity (RPS6KA6 KD1 KD2 (human)): 94.2% | residual activity (TAOK3 (human)): 107% | residual activity (TEK (human)): 94.2% | residual activity (TNK2 (human)): 98.5% | residual activity (TSSK1B (human)): 95.4% | residual activity (TSSK2 (human)): 97% | residual activity [1]: 82.7% | residual activity (VRK1 (human)): 97.9%

CCCCc1c(-c2ccc(OC)cc2)[nH]c2nccnc12
residual activity (ACVR1 (human)): 86.9% | residual activity (BLK (human)): 96.7% | residual activity (CAMK1D (human)): 97.9% | residual activity (CDK1 CCNB1 (human)): 47.7% | residual activity (CDK6 CCND3 (human)): 79.7% | residual activity (CHUK (human)): 97.3% | residual activity (ERBB4 (human)): 109% | residual activity (FGFR4 (human)): 92.5% | residual activity (FLT3 (human)): 47.8% | residual activity (GRK4 (human)): 96.7% | residual activity (HIPK1 (human)): 109% | residual activity (HIPK4 (human)): 119% | residual activity (IGF1R (human)): 83.9% | residual activity (JAK3 JH1 JH2 (human)): 92.8% | residual activity (KIT (human)): 82.9% | residual activity (MAP2K2 (human)): 79.4% | residual activity (MAP3K10 (human)): 82.7% | residual activity (MAP3K7 TAB1 (human)): 90.6% | residual activity (MAPK14 (human)): 112% | residual activity (MAPKAPK3 (human)): 98.6% | residual activity (MST1R (human)): 104% | residual activity (MUSK (human)): 95.4% | residual activity (MYLK (human)): 96.8% | residual activity (MYLK2 (human)): 102% | residual activity (NEK1 (human)): 86.9% | residual activity (NTRK1 (human)): 109% | residual activity (PAK2 (human)): 97.5% | residual activity (PAK3 (human)): 106% | residual activity (PDGFRB (human)): 95.9% | residual activity (PLK3 (human)): 91.5% | residual activity (PRKCG (human)): 94.4% | residual activity (RET (human)): 56.3% | residual activity (RPS6KA2 KD1 KD2 (human)): 93% | residual activity (RPS6KA6 KD1 KD2 (human)): 78.2% | residual activity (TAOK3 (human)): 103% | residual activity (TEK (human)): 96.3% | residual activity (TNK2 (human)): 51.2% | residual activity (TSSK1B (human)): 65.3% | residual activity (TSSK2 (human)): 93.7% | residual activity [1]: 38.8% | residual activity (VRK1 (human)): 95.5%

CN(C)S(=O)(=O)c1ccc2c(c1)/C(=C/c1cc3c([nH]1)CCCC3)C(=O)N2
residual activity (ACVR1 (human)): 98.6% | residual activity (BLK (human)): 13.9% | residual activity (CAMK1D (human)): 99.8% | residual activity (CDK1 CCNB1 (human)): 75.4% | residual activity (CDK6 CCND3 (human)): 84.2% | residual activity (CHUK (human)): 115% | residual activity (ERBB4 (human)): 106% | residual activity (FGFR4 (human)): 92.9% | residual activity (FLT3 (human)): 10.2% | residual activity (GRK4 (human)): 79.8% | residual activity (HIPK4 (human)): 98.8% | residual activity (IGF1R (human)): 89.5% | residual activity (JAK3 JH1 JH2 (human)): 64.8% | residual activity (KIT (human)): 60.7% | residual activity (MAP2K2 (human)): 104% | residual activity (MAP3K10 (human)): 99.1% | residual activity (MAP3K7 TAB1 (human)): 89% | residual activity (MAPK14 (human)): 98.8% | residual activity (MAPKAPK3 (human)): 100% | residual activity (MST1R (human)): 101% | residual activity (MUSK (human)): 82.8% | residual activity (MYLK (human)): 97.2% | residual activity (MYLK2 (human)): 97.9% | residual activity (NEK1 (human)): 93.1% | residual activity (NTRK1 (human)): 24.7% | residual activity (PAK2 (human)): 92.5% | residual activity (PAK3 (human)): 97.6% | residual activity (PDGFRB (human)): 96.5% | residual activity (PLK3 (human)): 94.5% | residual activity (PRKCG (human)): 86.8% | residual activity (RET (human)): 6.29% | residual activity (RPS6KA2 KD1 KD2 (human)): 52.8% | residual activity (RPS6KA6 KD1 KD2 (human)): 67.4% | residual activity (TAOK3 (human)): 55.4% | residual activity (TEK (human)): 95.4% | residual activity (TNK2 (human)): 12.6% | residual activity (TSSK1B (human)): 74.6% | residual activity (TSSK2 (human)): 91.8% | residual activity [1]: 11.4% | residual activity (VRK1 (human)): 104%
